Laboratory results from PubChem BioAssay (NCI).
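Five compound concentrations were applied to cells in 96-well plates for 48 hours; endpoints were derived by simple linear interpolation of the resulting dose-response curve. GI50 marks 50% less growth. TGI marks complete inhibition of growth.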

What was measured:
Assay in all cases: DTP human tumour cell line panel, 48 h
SK-MEL-2 melanoma = system: SK-MEL-2 melanoma
OVCAR-8 ovarian = system: OVCAR-8 ovarian
UO-31 renal = system: UO-31 renal
MCF7 breast = system: MCF7 breast
HCC-2998 colon = system: HCC-2998 colon
NCI/ADR-RES ovarian = system: NCI/ADR-RES ovarian
SK-MEL-5 melanoma = system: SK-MEL-5 melanoma
SNB-19 CNS = system: SNB-19 CNS
SK-OV-3 ovarian = system: SK-OV-3 ovarian
K-562 leukemia = system: K-562 leukemia
HS 578T breast = system: HS 578T breast
HOP-92 NSCLC = system: HOP-92 NSCLC
OVCAR-3 ovarian = system: OVCAR-3 ovarian
786-0 renal = system: 786-0 renal
LOX IMVI melanoma = system: LOX IMVI melanoma
ACHN renal = system: ACHN renal
T-47D breast = system: T-47D breast
UACC-62 melanoma = system: UACC-62 melanoma
TK-10 renal = system: TK-10 renal
NCI-H460 lung = system: NCI-H460 lung
MOLT-4 leukemia = system: MOLT-4 leukemia
RPMI-8226 leukemia = system: RPMI-8226 leukemia
PC-3 prostate = system: PC-3 prostate
IGROV1 ovarian = system: IGROV1 ovarian
A549 NSCLC = system: A549 NSCLC
MDA-MB-435 = system: MDA-MB-435
SF-539 CNS = system: SF-539 CNS
NCI-H226 lung = system: NCI-H226 lung
KM12 colon = system: KM12 colon
SN12C renal = system: SN12C renal
SF-295 CNS = system: SF-295 CNS
M14 melanoma = system: M14 melanoma
NCI-H522 lung = system: NCI-H522 lung
BT-549 breast = system: BT-549 breast
U251 CNS = system: U251 CNS
CCRF-CEM leukemia = system: CCRF-CEM leukemia
SF-268 CNS = system: SF-268 CNS
HL-60(TB) leukemia = system: HL-60(TB) leukemia
HT29 colon = system: HT29 colon
MDA-MB-231 breast = system: MDA-MB-231 breast
CAKI-1 renal = system: CAKI-1 renal
HOP-62 NSCLC = system: HOP-62 NSCLC
SR leukemia = system: SR leukemia
HCT-116 colon = system: HCT-116 colon
HCT-15 colon = system: HCT-15 colon
DU-145 prostate = system: DU-145 prostate
NCI-H23 lung = system: NCI-H23 lung
OVCAR-5 ovarian = system: OVCAR-5 ovarian
EKVX NSCLC = system: EKVX NSCLC
SW-620 colon = system: SW-620 colon
A498 renal = system: A498 renal
SNB-75 CNS = system: SNB-75 CNS

In the case of `O=C(Oc1ccccc1Cl)c1ccccc1Nc1ccnc(C(F)(F)F)c1`, the GI50 (SK-MEL-2 melanoma) is reported as 26400 nM, the TGI (SK-MEL-2 melanoma) is reported as greater than 100000 nM and the GI50 (OVCAR-8 ovarian) is reported as 366 nM. It also gave a TGI (OVCAR-8 ovarian) of 14300 nM, a GI50 (UO-31 renal) of 9630 nM and a TGI (UO-31 renal) greater than 57900 nM. It also gave a GI50 (MCF7 breast) of 1010 nM, a TGI (MCF7 breast) greater than 30800 nM and a GI50 (HCC-2998 colon) of 2220 nM. The TGI (HCC-2998 colon) was 5260 nM, the GI50 (NCI/ADR-RES ovarian) was 269 nM and the TGI (NCI/ADR-RES ovarian) was 698 nM. The GI50 (SK-MEL-5 melanoma) was 264 nM, the TGI (SK-MEL-5 melanoma) was 545 nM and the GI50 (SNB-19 CNS) was 7430 nM. It also gave a TGI (SNB-19 CNS) greater than 100000 nM, a GI50 (SK-OV-3 ovarian) of 8020 nM and a TGI (SK-OV-3 ovarian) of 46400 nM. The GI50 (K-562 leukemia) was 76.8 nM, the TGI (K-562 leukemia) was 3390 nM and the GI50 (HS 578T breast) was 20000 nM. For the same molecule, the TGI (HS 578T breast) was 74100 nM, the GI50 (HOP-92 NSCLC) was 271 nM and the TGI (HOP-92 NSCLC) was 13400 nM. It also gave a GI50 (OVCAR-3 ovarian) of 247 nM, a TGI (OVCAR-3 ovarian) of 533 nM and a GI50 (786-0 renal) of 859 nM. The TGI (786-0 renal) was 2390 nM, the GI50 (LOX IMVI melanoma) was 26.1 nM and the TGI (LOX IMVI melanoma) was 86.4 nM. It also gave a GI50 (ACHN renal) of 281 nM, a TGI (ACHN renal) of 808 nM and a GI50 (T-47D breast) of 31200 nM. The TGI (T-47D breast) was greater than 100000 nM, the GI50 (UACC-62 melanoma) was 165 nM and the TGI (UACC-62 melanoma) was 2050 nM. For the same molecule, the GI50 (TK-10 renal) was 415 nM, the TGI (TK-10 renal) was 4610 nM and the GI50 (NCI-H460 lung) was 422 nM. For the same molecule, the TGI (NCI-H460 lung) was greater than 26200 nM, the GI50 (MOLT-4 leukemia) was 258 nM and the GI50 (RPMI-8226 leukemia) was 106 nM. For the same molecule, the TGI (RPMI-8226 leukemia) was 385 nM, the GI50 (PC-3 prostate) was 306 nM and the TGI (PC-3 prostate) was 3550 nM. It also gave a GI50 (IGROV1 ovarian) of 16300 nM, a TGI (IGROV1 ovarian) greater than 100000 nM and a GI50 (A549 NSCLC) of 1360 nM. The TGI (A549 NSCLC) was 21500 nM, the GI50 (MDA-MB-435) was 107 nM and the TGI (MDA-MB-435) was 297 nM. The GI50 (SF-539 CNS) was 383 nM, the TGI (SF-539 CNS) was 1880 nM and the GI50 (NCI-H226 lung) was 286 nM. For the same molecule, the TGI (NCI-H226 lung) was 915 nM, the GI50 (KM12 colon) was 299 nM and the TGI (KM12 colon) was 1360 nM. For the same molecule, the GI50 (SN12C renal) was 289 nM, the TGI (SN12C renal) was 2570 nM and the GI50 (SF-295 CNS) was 270 nM. It also gave a TGI (SF-295 CNS) of 1090 nM, a GI50 (M14 melanoma) of 252 nM and a TGI (M14 melanoma) of 913 nM. The GI50 (NCI-H522 lung) was 380 nM, the TGI (NCI-H522 lung) was greater than 70300 nM and the GI50 (BT-549 breast) was 635 nM. The TGI (BT-549 breast) was 20600 nM, the GI50 (U251 CNS) was 271 nM and the TGI (U251 CNS) was 808 nM. It also gave a GI50 (CCRF-CEM leukemia) of 32.4 nM, a GI50 (SF-268 CNS) of 710 nM and a GI50 (HL-60(TB) leukemia) of 472 nM. For the same molecule, the TGI (HL-60(TB) leukemia) was greater than 100000 nM, the GI50 (HT29 colon) was 389 nM and the TGI (HT29 colon) was greater than 100000 nM. It also gave a GI50 (MDA-MB-231 breast) of 202 nM, a TGI (MDA-MB-231 breast) of 502 nM and a GI50 (CAKI-1 renal) of 599 nM. It also gave a TGI (CAKI-1 renal) of 1760 nM, a GI50 (HOP-62 NSCLC) of 2690 nM and a TGI (HOP-62 NSCLC) of 7860 nM. It also gave a GI50 (SR leukemia) of 28.2 nM, a TGI (SR leukemia) greater than 100000 nM and a GI50 (HCT-116 colon) of 1780 nM. For the same molecule, the TGI (HCT-116 colon) was 3650 nM, the GI50 (HCT-15 colon) was 219 nM and the TGI (HCT-15 colon) was 538 nM. It also gave a GI50 (DU-145 prostate) of 3420 nM, a TGI (DU-145 prostate) of 13300 nM and a GI50 (NCI-H23 lung) of 42.8 nM. For the same molecule, the TGI (NCI-H23 lung) was 248 nM, the GI50 (OVCAR-5 ovarian) was 459 nM and the TGI (OVCAR-5 ovarian) was 24400 nM. The GI50 (EKVX NSCLC) was 6850 nM, the TGI (EKVX NSCLC) was 26000 nM and the GI50 (SW-620 colon) was 150 nM. For the same molecule, the TGI (SW-620 colon) was 20000 nM, the GI50 (A498 renal) was 3920 nM and the TGI (A498 renal) was 17600 nM. The GI50 (SNB-75 CNS) was 676 nM and the TGI (SNB-75 CNS) was 27000 nM.
